The term pKi denotes the negative decadic logarithm of the Ki, by convention in mol/L.

pKi: −log10 of the molar value.

In publication PMC12004706, “In vitro inhibition of voltage-dependent sodium currents by the antifungal drug amorolfine” (The Journal of Biological Chemistry, 2025) one finds Ki data, which are given here for one compound.

The experiment addresses T1, Nav1.7 (Homo sapiens, UniProt Q15858).
T1 construct: gene SCN9A; human Nav1.7 channels stably transfected in Expi293F cells
Nature of the experiment: automated whole-cell patch clamp (Qube-384); inverse apparent IC50 vs holding potential fit with four-state binding model. It is filed as cell-based.

T1 sequence (Q15858 whole entry): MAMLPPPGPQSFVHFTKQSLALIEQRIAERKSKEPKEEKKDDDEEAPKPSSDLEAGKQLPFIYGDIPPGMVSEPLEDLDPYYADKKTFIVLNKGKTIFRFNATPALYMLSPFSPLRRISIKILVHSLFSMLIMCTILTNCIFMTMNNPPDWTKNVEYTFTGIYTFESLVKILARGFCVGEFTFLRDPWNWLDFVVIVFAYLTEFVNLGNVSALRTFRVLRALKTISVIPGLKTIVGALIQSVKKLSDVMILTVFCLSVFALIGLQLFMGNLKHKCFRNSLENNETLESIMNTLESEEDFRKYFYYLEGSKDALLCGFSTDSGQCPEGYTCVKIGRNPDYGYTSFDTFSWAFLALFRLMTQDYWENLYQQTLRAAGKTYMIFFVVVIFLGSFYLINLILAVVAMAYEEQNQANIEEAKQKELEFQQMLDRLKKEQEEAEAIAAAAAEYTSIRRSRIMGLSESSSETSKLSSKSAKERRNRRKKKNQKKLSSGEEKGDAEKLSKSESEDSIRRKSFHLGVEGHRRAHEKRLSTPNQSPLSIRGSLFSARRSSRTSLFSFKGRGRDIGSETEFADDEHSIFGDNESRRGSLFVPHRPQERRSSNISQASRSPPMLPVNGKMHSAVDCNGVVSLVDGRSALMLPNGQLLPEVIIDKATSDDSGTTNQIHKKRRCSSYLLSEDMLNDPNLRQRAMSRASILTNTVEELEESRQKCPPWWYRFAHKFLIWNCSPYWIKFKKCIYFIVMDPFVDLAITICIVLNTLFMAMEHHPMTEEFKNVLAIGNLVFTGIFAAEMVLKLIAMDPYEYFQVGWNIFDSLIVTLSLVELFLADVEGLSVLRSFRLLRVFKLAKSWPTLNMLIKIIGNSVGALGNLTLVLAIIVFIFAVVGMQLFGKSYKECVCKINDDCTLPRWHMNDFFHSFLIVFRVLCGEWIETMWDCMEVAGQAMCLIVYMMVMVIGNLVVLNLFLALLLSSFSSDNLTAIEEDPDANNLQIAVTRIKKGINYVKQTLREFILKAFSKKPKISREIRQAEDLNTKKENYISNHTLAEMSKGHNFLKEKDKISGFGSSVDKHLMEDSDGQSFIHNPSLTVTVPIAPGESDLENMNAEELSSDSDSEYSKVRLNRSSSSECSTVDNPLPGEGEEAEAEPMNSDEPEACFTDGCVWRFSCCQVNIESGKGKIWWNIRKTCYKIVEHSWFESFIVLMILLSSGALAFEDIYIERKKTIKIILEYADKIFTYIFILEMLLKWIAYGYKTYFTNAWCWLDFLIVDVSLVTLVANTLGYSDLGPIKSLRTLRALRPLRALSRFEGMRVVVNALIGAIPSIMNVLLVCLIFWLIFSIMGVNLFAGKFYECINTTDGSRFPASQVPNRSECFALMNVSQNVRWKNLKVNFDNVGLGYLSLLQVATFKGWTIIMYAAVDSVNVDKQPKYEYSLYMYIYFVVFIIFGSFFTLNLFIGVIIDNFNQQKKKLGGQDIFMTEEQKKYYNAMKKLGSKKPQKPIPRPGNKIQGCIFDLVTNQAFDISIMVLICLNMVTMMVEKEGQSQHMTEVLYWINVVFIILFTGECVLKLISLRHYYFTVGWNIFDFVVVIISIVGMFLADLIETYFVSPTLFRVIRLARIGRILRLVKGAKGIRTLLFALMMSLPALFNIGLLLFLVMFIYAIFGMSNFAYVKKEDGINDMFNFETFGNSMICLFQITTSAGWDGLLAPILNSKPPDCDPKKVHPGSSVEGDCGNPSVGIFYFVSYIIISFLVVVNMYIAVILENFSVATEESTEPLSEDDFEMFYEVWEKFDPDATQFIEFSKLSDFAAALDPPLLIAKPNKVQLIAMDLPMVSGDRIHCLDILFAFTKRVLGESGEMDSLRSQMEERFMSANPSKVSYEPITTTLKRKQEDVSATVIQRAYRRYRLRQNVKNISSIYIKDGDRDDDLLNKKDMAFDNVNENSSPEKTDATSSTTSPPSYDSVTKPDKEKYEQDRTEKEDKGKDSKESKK

With `CCC(C)(C)c1ccc(CC(C)CN2C[C@@H](C)O[C@@H](C)C2)cc1` (stereo partly shown) [AMF, amorolfine], the negative-log Ki (pKi) is 5.44.
